Reference: ChEMBL document CHEMBL1201862, “PubChem BioAssay data set” (2004)
Active and inactive are the calls of the source.

Experiments:
[1] = target: T1, Dual specificity protein phosphatase 3 (Homo sapiens, UniProt P51452); test: SAR VHR1 Fluorescent Assay for In Vitro dose response studies Set 3. [Related pubchem assays (depositor defined):AID1654, AID1661, AID1878]; assay type: functional
[2] = target: T2, Alkaline phosphatase, tissue-nonspecific isozyme (Homo sapiens, UniProt P05186); test: activation of tissue-nonspecific alkaline phosphatase – biochemical, TNAP isozyme, mouse IAP uHTS hits, selectivity assay for mouse IAP activator project, dose response (AID 488880); assay type: functional
T2 sequence (P05186 whole entry): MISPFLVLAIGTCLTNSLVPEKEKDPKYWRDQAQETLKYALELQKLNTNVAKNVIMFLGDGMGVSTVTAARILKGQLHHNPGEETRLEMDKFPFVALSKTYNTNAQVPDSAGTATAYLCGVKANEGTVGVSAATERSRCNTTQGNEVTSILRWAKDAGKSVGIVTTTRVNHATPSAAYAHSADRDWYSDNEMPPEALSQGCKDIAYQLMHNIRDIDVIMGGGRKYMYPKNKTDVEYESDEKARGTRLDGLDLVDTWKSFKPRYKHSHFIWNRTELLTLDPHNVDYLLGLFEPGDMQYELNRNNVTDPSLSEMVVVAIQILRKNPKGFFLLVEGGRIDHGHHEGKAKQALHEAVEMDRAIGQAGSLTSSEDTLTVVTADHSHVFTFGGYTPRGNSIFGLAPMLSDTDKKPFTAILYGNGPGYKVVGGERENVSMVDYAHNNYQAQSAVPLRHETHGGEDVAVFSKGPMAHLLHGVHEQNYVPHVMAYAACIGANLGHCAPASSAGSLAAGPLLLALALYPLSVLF

[3] = target: Bifunctional protein GlmU (Mycobacterium tuberculosis, UniProt P9WMN3); test: Inhibitors of Mycobacterial Glucosamine-1-phosphate acetyl transferase (GlmU). Secondary screen.; set-up: species or system Mycobacterium tuberculosis H37Rv
Keap1/Nrf2 = Keap1/Nrf2 (Homo sapiens, UniProt Q14145); test: disruptors of Keap1 binding to Nrf2 peptide – biochemical, fluorescence polarization, cherry-picked samples, dose response (AID 588683)
Troponin, cardiac muscle = Troponin, cardiac muscle (Homo sapiens, UniProt P19429+P45379+P63316); test: Fluorescence-based biochemical high throughput dose response assay for activators of the calcium sensitivity of cardiac Regulated Thin Filaments (RTF). [Related pubchem assays (depositor defined):AID493008, AID493018, AID504382, AID504383]; assay type: protein-complex assay
[4] = target: Intestinal-type alkaline phosphatase (Mus musculus, UniProt P24822); test: mouse intestinal alkaline phosphatase activators, dose response, biochemical, luminescence, uHTS hits (AID 488783); assay type: functional
[5] = target: Intestinal-type alkaline phosphatase (Homo sapiens, UniProt P09923); test: activation of human intestinal alkaline phosphatase – biochemical, dose response (AID 488873); assay type: functional
Large T antigen = Large T antigen (Simian virus 40, UniProt P03070); assay type: functional, Betapolyomavirus macacae;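 also: Confirmatory-stage PubChem screen for compounds that inhibit SV40 T antigen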
[6] = target: T1, Dual specificity protein phosphatase 3; test: SAR VHR1 absorbance Assay for In Vitro dose response studies. [Related pubchem assays (depositor defined):AID1654, AID1661, AID1878, AID1992, AID2004]
[7] = target: T3, Tyrosine-protein phosphatase non-receptor type 7 (Homo sapiens, UniProt P35236); test: redox-active compounds inhibiting HePTP phosphatase – biochemical, fluorescence, mechanism study (AID 2068); assay type: functional
T3 sequence (P35236 whole entry): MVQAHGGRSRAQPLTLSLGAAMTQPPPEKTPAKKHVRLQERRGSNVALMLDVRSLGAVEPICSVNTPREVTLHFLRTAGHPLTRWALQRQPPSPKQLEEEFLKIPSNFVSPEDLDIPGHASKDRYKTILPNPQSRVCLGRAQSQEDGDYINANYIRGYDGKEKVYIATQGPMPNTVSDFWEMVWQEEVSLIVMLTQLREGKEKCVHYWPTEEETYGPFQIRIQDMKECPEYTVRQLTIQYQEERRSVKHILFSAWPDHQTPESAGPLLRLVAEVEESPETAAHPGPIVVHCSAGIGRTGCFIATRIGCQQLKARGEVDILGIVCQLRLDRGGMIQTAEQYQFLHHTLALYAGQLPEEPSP

[8] = target: T4, Dual specificity protein phosphatase 6 (Rattus norvegicus, UniProt Q64346); assay type: functional;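 also: confirmatory in vitro dose-response testing of MKP-3 inhibition; recombinant His-tagged MKP-3 made in E. coli BL21 with OMFP substrate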
T4 sequence (Q64346 whole entry): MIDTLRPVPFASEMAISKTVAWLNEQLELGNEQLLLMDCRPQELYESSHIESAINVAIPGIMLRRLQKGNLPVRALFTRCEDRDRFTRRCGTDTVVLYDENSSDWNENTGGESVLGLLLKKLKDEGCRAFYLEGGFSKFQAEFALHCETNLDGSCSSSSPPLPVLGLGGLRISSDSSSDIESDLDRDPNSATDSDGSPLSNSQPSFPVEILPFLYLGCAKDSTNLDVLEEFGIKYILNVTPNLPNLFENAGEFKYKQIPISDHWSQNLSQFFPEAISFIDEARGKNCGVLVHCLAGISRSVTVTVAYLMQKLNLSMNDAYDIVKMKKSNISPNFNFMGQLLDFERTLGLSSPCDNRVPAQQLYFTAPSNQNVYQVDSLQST

[9] = target: T5, Apoptotic protease-activating factor 1 (Homo sapiens, UniProt O14727); test: activation of Apaf-1 mediated apoptosis – fluorescent, uHTS hits, dose response (AID 588554); assay type: functional
T5 sequence (O14727 whole entry): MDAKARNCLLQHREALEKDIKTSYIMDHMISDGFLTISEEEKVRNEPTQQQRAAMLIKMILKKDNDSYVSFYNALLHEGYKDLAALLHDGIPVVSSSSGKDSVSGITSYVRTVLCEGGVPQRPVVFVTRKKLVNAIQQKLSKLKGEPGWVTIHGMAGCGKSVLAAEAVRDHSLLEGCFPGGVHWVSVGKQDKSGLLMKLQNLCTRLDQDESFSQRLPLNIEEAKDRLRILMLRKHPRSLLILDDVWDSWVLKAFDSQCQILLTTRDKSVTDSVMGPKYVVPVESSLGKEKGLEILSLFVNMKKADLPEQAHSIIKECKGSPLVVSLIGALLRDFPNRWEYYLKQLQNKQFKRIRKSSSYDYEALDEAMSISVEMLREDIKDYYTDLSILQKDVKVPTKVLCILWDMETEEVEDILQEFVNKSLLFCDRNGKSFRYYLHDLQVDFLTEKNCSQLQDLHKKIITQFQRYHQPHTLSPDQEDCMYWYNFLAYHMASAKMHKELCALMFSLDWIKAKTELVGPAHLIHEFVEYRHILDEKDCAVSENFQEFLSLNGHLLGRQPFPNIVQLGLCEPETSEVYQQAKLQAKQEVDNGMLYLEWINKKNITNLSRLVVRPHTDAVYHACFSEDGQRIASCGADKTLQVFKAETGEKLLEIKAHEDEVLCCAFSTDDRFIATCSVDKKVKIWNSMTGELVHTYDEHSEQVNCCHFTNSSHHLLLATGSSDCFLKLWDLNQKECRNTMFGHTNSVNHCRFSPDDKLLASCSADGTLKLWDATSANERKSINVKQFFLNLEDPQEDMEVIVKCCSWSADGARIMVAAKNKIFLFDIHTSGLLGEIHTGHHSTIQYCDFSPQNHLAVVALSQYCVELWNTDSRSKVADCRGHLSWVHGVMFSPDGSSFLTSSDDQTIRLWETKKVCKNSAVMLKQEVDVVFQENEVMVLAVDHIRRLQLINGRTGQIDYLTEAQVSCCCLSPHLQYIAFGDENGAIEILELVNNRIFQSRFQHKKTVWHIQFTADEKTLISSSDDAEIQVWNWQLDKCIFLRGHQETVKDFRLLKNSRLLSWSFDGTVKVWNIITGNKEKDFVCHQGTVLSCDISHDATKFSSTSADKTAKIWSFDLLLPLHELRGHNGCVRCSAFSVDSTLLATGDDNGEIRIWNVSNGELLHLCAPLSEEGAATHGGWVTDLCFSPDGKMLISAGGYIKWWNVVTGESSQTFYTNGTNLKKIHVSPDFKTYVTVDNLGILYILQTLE

[10] = target: T1, Dual specificity protein phosphatase 3; test: VHR1 phosphatase inhibitors, primary screen, biochemical, absorbance, uHTS (AID 1654)
[11] = target: Tyrosine-protein phosphatase non-receptor type 12 (Homo sapiens, UniProt Q05209); test: SAR Selectivity Analysis of small molecule inhibitors of PEST using pCAP in a fluorescence assay. [Related pubchem assays (depositor defined):AID1779, AID1784, AID2135]; assay type: functional
[12] = target: T1, Dual specificity protein phosphatase 3; test: VHR1 phosphatase inhibitors, biochemical (AID 1878)
[13] = target: T1, Dual specificity protein phosphatase 3; test: SAR VHR1 Fluorescent Assay for In Vitro dose response studies. [Related pubchem assays (depositor defined):AID1654, AID1661, AID1878, AID1992, AID2004, AID2070, AID2085]; assay type: functional
Genome polyprotein = Genome polyprotein (dengue virus type 2, UniProt P29990); test: flavivirus cap methylation enzyme inhibition – biochemical, confirmation dose response, primary screen (AID 588689); assay type: functional
[14] = target: T6, Tyrosine-protein phosphatase non-receptor type 22 (Homo sapiens, UniProt Q9Y2R2); test: inhibition of lymphoid tyrosine phosphatase LYP – biochemical, pCAP fluorogenic substrate, fluorescence, set 3, SAR follow-up (AID 449727); assay type: functional
T6 sequence (Q9Y2R2 whole entry): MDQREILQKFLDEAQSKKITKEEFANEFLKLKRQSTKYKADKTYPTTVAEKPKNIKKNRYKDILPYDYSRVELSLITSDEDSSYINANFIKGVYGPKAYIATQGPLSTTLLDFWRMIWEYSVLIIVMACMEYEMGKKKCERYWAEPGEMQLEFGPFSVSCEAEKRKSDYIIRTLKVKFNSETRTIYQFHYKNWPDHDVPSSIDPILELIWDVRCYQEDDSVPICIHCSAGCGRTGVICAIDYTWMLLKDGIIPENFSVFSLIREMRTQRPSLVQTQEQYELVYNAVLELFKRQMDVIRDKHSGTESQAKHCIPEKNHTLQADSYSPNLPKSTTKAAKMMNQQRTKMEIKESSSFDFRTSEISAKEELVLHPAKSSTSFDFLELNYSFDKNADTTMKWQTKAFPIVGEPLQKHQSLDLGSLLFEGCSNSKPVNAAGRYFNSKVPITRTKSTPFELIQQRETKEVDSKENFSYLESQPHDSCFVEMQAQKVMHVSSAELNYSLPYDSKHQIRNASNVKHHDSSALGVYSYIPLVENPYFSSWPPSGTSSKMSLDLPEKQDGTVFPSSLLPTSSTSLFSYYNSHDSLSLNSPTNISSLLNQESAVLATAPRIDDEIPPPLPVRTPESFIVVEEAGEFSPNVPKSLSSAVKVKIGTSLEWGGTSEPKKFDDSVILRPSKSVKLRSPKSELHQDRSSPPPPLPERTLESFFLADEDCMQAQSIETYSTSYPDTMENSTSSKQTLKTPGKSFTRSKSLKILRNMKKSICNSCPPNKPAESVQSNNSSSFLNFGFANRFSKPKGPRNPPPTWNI

[15] = target: T6, Tyrosine-protein phosphatase non-receptor type 22; test: SAR LYP1 Fluorescent Assay using OMFP substrate for In Vitro dose response studies - Set 3. [Related pubchem assays (depositor defined):AID1779, AID1784, AID2140, AID2686]; assay type: functional
[16] = target: T4, Dual specificity protein phosphatase 6; test: inhibition of rat DUSP6 enzyme activity – biochemical, in vitro, primary screen (AID 425)
Jurkat = test: blockers of NF-kB activation in T cells – Jurkat, luciferase reporter, luminescence, B- and T-cell, dose response (AID 489004); assay type: functional, cell-based; conditions: Homo sapiens;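 also: NF-kB luciferase reporter Jurkat cells stimulated with PMA plus ionomycin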
[17] = HEK-293T viability loss, compound-treated – cell-based, uHTS hits, cytotoxicity control for B/T-cell NF-kB inhibitor project, dose response (AID 489019); assay type: functional;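 also: IC50 reflects cytotoxicity as loss of cell viability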
[18] = target: Cyclin-dependent kinase 5/CDK5 activator 1 (Homo sapiens, UniProt Q00535); test: blockade of human CDK5 activity – biochemical, cherry-picked samples, set 2, dose response (AID 504545)

## Cc1cc(Cl)cc2sc(N(Cc3cccnc3)C(=O)c3cccc(N4C(=O)CCC4=O)c3)nc12
[1]
  IC50: 58.2 µM (active)

## Cc1ccc(/C=C2/SC(=O)NC2=S)o1
[2]
  EC50: 45.5 µM (active)
[3]
  IC50: 170 µM (active)
Keap1/Nrf2
  AC50: > 52 µM (inactive)
Troponin, cardiac muscle
  EC50: 17.9 µM (inactive)
[4]
  EC50: 21.8 µM (active)
[5]
  EC50: 41.4 µM (active)
Large T antigen
  IC50: > 100 µM (active)

## CCc1ccc(NC2=NC(=O)/C(=C/c3cc(Br)c(OCC(=O)O)c(OC)c3)S2)cc1
[6]
  IC50: 3.62 µM (active)
[7]
  IC50: 280 nM (active)
[8]
  IC50: 44.9 µM (active)
[9]
  EC50: 15.8 µM (active)
[10]
  IC50: 10.5 µM (active)
[11]
  IC50: 2.78 µM (active)
[12]
  IC50: 3.93 µM (active)
[13]
  IC50: 878 nM (active)
Genome polyprotein
  IC50: 39.5 µM (active)
[14]
  IC50: 6.74 µM (active)
[15]
  IC50: 10.3 µM (active)
[16]
  IC50: 84.5 µM (active)

## C=CC(=O)Nc1ccc(Nc2nc(N[C@H]3CC[C@H](N(C)C)CC3)nc3c2ncn3C(C)C)cc1
Jurkat
  IC50: 170 nM (active)
[17]
  IC50: > 80 µM (inactive)
[18]
  AC50: 1.48 µM (active)
